Values of other authors in US12473247B2, “Encoded design integrated synthesis of nucleic acids, and phospholipids, and related pharmaceutical products” (priority 2023, dated 2025).

Key:
[1] = ratio relative to cortisol = 1; pharmacological potency of corticosteroids

Row | SMILES | solubility in aqueous | relative activity of dexamethasone:prednisolone:cortisol [1]
1 | c1ccc2c(c1)ccc1c3ccccc3ccc21 [chrysene] | insoluble | –
2 | C[C@]12C=CC(=O)C=C1CC[C@@H]1[C@@H]2[C@@H](O)C[C@@]2(C)[C@H]1CC[C@]2(O)C(=O)CO [prednisolone] | – | ~4
3 | C[C@]12CCC(=O)C=C1CC[C@@H]1[C@@H]2[C@@H](O)C[C@@]2(C)[C@H]1CC[C@]2(O)C(=O)CO [cortisol] | – | ~1
